The values that follow come from PMC2647841, “Sulfatide Recognition by Colonization Factor Antigen CS6 from Enterotoxigenic Escherichia coli” (PLoS ONE, 2009).

The target in the assay is T1, CS6 protein (coli surface antigen 6; CS6 adhesin) (Escherichia coli, UniProt P53510).
T1 construct: gene cssB; CS6 complex (CssA and CssB structural subunits; operon cssA-cssD, recombinant plasmid pJT-CS6), no tag stated; secreted by E. coli TOP10-CS6, ammonium sulfate precipitate of culture supernatant; 125I-labelled; with CS6 fimbrial subunit A
As to the kind of experiment: microtiter well binding of […]-labelled CS6 to coated glycosphingolipid. The following applies: amount of glycosphingolipid coated per well, not a concentration; room temperature, 4 h.

T1 sequence (P53508 19-154): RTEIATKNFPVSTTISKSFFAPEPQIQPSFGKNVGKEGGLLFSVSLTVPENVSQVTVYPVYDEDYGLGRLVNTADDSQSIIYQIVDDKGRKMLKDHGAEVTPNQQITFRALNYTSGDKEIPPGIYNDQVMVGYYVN
T1 sequence (P53510 22-167): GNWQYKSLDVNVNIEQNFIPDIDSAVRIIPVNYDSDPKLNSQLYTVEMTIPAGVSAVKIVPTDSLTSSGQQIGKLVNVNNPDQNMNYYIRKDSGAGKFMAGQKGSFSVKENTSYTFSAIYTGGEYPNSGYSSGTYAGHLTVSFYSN

With Sulfatide [compound 3], the half-maximal binding was ~ 100 ng.
